Experimental data as given in patent US20220331301A1, “CYSTIC FIBROSIS TRANSMEMBRANE CONDUCTANCE REGULATOR MODULATORS FOR TREATING AUTOSOMAL RESESSIVE POLYCYSTIC KIDNEY DISEASE” (The Johns Hopkins University, priority 2021, published 2022).
“Also recorded” adds a separate entry of the source.

Columns and labels:
Type in all cases: cell-based, mice
[1] = system: fibrocystin (FPC); assay: FPC expression in WT and Pkhd1del4/del4 cholangiocytes; details: Pkhd1^del4/del4 cholangiocytes
Procedure: FIG. 1A and FIG. 1B show the expression of fibrocystin (FPC) in normal and reduced levels in Pkhd1^del4/del4 cholangiocytes. The residual level of FPC is expected in Pkhd1^del4/del4 cholangiocytes. Garcia-Gonzalez et al., 2007. VX-809 increases FPC. Columns represent the means±SEM of the FPC expression. The data were analyzed by non-parametric t-test. The experiment was repeated 3-4 times; P<0.05;
(Methods and cells provided by the Yale O'Brian Center) To create the cholangiocyte cultures PKhd1del/4/del4, Garcia-Gonzalez et al., 2007, animals were crossed with mice transgenic for the Sv40 large T Antigen (strain name SV40 T-antigen JAX strain #002233). Segments of intrahepatic bile ducts were microdissected from livers perfused via the portal vein with molten agarose containing toluidine blue to mark the veins. The liver parenchyma was stripped until the biliary tree was identified and the bile duct units were seeded onto rat type I collagen coated plates. Cells were cultured under non-permissive conditions in the following medium: DMEM/F12 with 5% fetal bovine serum, 10 μL/mL insulin-transferrin selenium, 3.4 μg/mL triiodothyronine, 50,000 U penicillin/streptomycin under humidified conditions at 37° C. in 5% CO2. After one week, the cells were cultured under permissive conditions in the presence of 10 U of interferon-γ at 33° C. in 5% CO2. […]

[2] = system: Pkhd1^del4/del4 cholangiocytes; assay: Cyst growth of cholangiocytes on matrigel (3D culture); details: for cyst growth / cyst area: 10 μM continuous, cysts induced with Forskolin (10 μM)
Procedure: (§1) Note that the cysts treated with forskolin (for) grew larger. […] Note that the cysts treated with forskolin (for) grew larger. […] FIG. 3C for 1 wk. […] Cysts were induced with Forskolin (10 μM) for 24 hours prior to study. Columns represent means±standard error (SEM). **P<0.01 ****P<0.0001 (for all graphs). Statistical analysis was performed using an unpaired two-tailed Student's t-test;
as §1, with “4C” for “3C”
But cysts do develop from the Pkhd1del4/del4 cholangiocytes. Cyst growth is accelerated by forskolin (for). […] Yanda et al., 2018. The dosage of VX-809 injected was lower than the human pediatric dose, which is 500 mg of Lumacaftor per day; the adult dose is 800 mg/day.
(Methods and cells provided by the Yale O'Brian Center) To create the cholangiocyte cultures PKhd1del/4/del4, Garcia-Gonzalez et al., 2007, animals were crossed with mice transgenic for the Sv40 large T Antigen (strain name SV40 T-antigen JAX strain #002233). Segments of intrahepatic bile ducts were microdissected from livers perfused via the portal vein with molten agarose containing toluidine blue to mark the veins. The liver parenchyma was stripped until the biliary tree was identified and the bile duct units were seeded onto rat type I collagen coated plates. Cells were cultured under non-permissive conditions in the following medium: DMEM/F12 with 5% fetal bovine serum, 10 μL/mL insulin-transferrin selenium, 3.4 μg/mL triiodothyronine, 50,000 U penicillin/streptomycin under humidified conditions at 37° C. in 5% CO2. After one week, the cells were cultured under permissive conditions in the presence of 10 U of interferon-γ at 33° C. in 5% CO2. When confluent, cells were passaged by digesting the collagen slab below the cells (60 min; 37° C.; DMEM/F12 with 2 mg/mL dispase and 1 mg/mL collagenase type 11), then washed twice in PBS and plated onto collagen coated support systems. Clonal cell lines were generated by single cell isolation. Cells were differentiated for 10 days at 37° C. without interferon-γ for experimental use.

[3] = system: Pkhd1^del4/del4 cholangiocytes; assay: Fura-2 Ca2+ imaging, thapsigargin-induced ER Ca2+ release in cholangiocytes; details: VX-809 (10 μM) for 16 h; thapsigargin (4 μM)
Procedure: FIG. 6A, FIG. 6B, and FIG. 6C show intracellular Ca2+ (F340/F380) levels obtained by ratiometric Fura-2 AM analysis of WT and Pkhd1^del4/del4 cholangiocytes, the latter treated with VX-809 (10 μM) for 16 h. (FIG. 6A) Representative traces of ER Ca2+ release in response to thapsigargin (4 μM) in WT and Pkhd1^del4/del4 cholangiocytes the latter treated with VX-809. Resting calcium levels (FIG. 6B and the average amplitude of Ca2+ release (FIG. 6C) in response to thapsigargin;
The ER is one of the major repositories for Ca2+ in the cell. Burgoyne et al., 2015. Misregulation of Ca2+ signaling is a hallmark of ADPKD. Yanda et al., 2019b. To understand whether the ER Ca2+ movement is altered, we measured ER Ca2+ release; we treated the cells with thapsigargin, a specific inhibitor of the ER Ca2+-ATPase that, when applied, allows Ca2+ to leak out of the ER through independent Ca2+-permeable pathways. Jackson et al., 1988; Thastrup et al., 1990; Thastrup et al., 1989.
The cells were loaded with the cell-permeant acetoxymethyl (AM) ester of the calcium indicator fura-2 (fura-2/AM) at 37° C. for 90 min. […] A Zeiss FluorArc mercury lamp was used to excite the cells at 340 and 380 nm, and the emission response was measured at 510 nm. Cell fluorescence was measured in response to excitation for 1000 ms at 340 nm and 200 ms at 380 nm once every 4 s. […]

[4] = system: CFTR; assay: Western blot of CFTR protein expression in cholangiocytes; details: Pkhd1del4/del4 cholangiocytes
Description: Please note the reduction of CFTR protein in Pkhd1del4/del4 cholangiocytes and the increase following VX-809 treatment;

[5] = system: HSP27, 70, 90 and Aha1; assay: Western blot of chaperone expression in cholangiocytes; details: Pkhd1del4/del4 cholangiocytes
Procedure: FIG. 9A, FIG. 9B, FIG. 9C, FIG. 9D and FIG. 9E show chaperone expression is altered Pkhd1del4/del4 cholangiocytes. (FIG. 9A) Representative Western blot images of HSP27, 70, 90 and Aha1 in WT and Pkhd1del4/del4 cholangiocytes treated with VX-809 as described in previous figures. (FIG. 9B, FIG. 9C, FIG. 9D and FIG. 9E) Columns represent averages±standard errors of Hsp 27, Aha1, HSP70 and HSP90 expression. Data were analyzed by non-parametric t-test. n=4 for each treated and control groups. **P. Please note the large decrease in Hsp27 and increases in Aha1, HSP70 and Hsp 90 in Pkhd1del4/del4 cholangiocytes compared to WT.
We have previously shown that CFTR-based correctors rescue ΔF508-CFTR by altering the proteostatic network of ER quality control proteins (HSPs) involved in its degradation. Lopes-Pacheco et al., 2015. […] To continue this line of investigation, we measured the steady-state levels of HSPs in Pkhd1del4/del4 cholangiocytes (FIG. 9). In the mutant cholangiocytes, HSP27 was reduced by half whereas, HSP70 was increased by 8 fold, HSP90 was by 2-fold and Aha1 by 2.5 fold.

Substance: lumacaftor [VX-809]
- FPC expression [1]: increases FPC and CFTR protein levels
- cyst growth in 3D culture ([2]; Pkhd1del4/del4 cholangiocytes, time not stated): reduces growth; also recorded: can reduce cyst growth even in the presence of forskolin
- cyst growth / cyst area ([2]; monitored for 1 week): reduced cyst growth in the presence of forskolin
- cyst growth / cyst area ([2]; monitored for 72 hrs): reduced cyst growth in the presence of forskolin
- thapsigargin-induced ER Ca2+ release [3]: dramatically reduced
- CFTR protein level [4]: trends back to normal; also recorded: increase
- Aha1 level [5]: reduced the levels; also recorded: correction toward WT values
- HSP70 level [5]: reduced the levels; also recorded: correction toward WT values
- HSP90 level [5]: reduced the levels; also recorded: correction toward WT values
